Columns and labels:
[1] = target: hFASN enzyme (full length) (Homo sapiens (Human), UniProt P49327); assay: Fatty Acid Synthase (FASN) Inhibition Scintillation Proximity Assay; assay type: biochemical; conditions: 3H-acetyl-CoA and malonyl-CoA substrates, SPA, mean if tested more than once
Procedure: In this assay, inhibition of FASN activity is measured using ^3H-acetyl-CoA and malonyl-CoA as substrates. ^3H-Acetyl CoA is converted to ^3H-palmitate through a series of reactions by the FASN protein, which contains 7 functional domains and carries out 7 enzymatic reactions to ultimately produce ^3H-palmitate. The assay principle is based upon the fact that ^3H-acetyl-CoA is hydrophilic and the end product, ^3H-palmitate is hydrophobic.
10 μL assay buffer (100 mM KH2PO4 pH 7.5, 1 mM DTT) (20 μL in blanks) was added to a 384-well white Opti Plate plate (Perkin Elmer). 0.9 μL test compound (at concentrations of 30 μM, 10 μM, 3 μM, 1 μM, 0.30 μM, 0.10 μM, 0.03 μM and 0.01 μM)/DMSO and 10 μL hFASN enzyme (full length, 300 ng, purified in house) or 10 μL assay buffer was added to the wells. […] The reaction was stopped by adding 20 μL Streptavidin coupled imaging beads (25 mg/ml). After incubation for 30 minutes at room temperature in the dark, the 384 well plate was centrifuged at 1500 rpm for 3 minutes and was measured after at least 24 hrs by the LEADseeker™, measuring emission using a 610±20 nm pass filter.
(§1) Raw data generated by the instrument were normalized to % Controlmin values, which were calculated as: % Controlmin=100*(x−mLC)/(mHC−mLC)
(§2) where mLC and mHC were the means of the low control wells and high control wells on the plate, after manual exclusion of outliers. A plot of Controlmin versus test compound concentration was fitted to a 4-parameter logistic curve using a non-linear least squares regression method.

[2] = target: FASN Keto-reductase Domain (hFASN enzyme, full length) (Homo sapiens (Human), UniProt P49327); assay: Fatty Acid Synthase Keto-reductase Domain (FASN KR) Inhibition; assay type: biochemical; conditions: NADPH oxidation at 340 nm, ethyl acetoacetate substrate
Procedure: After 20 minutes incubation at room temperature the plate was measured again (T2).
The decrease in absorbance was calculated as (Absorbance before incubation T1)−(Absorbance following incubation T2).
as §1, §2

Chain of hFASN enzyme (full length) (P49327 whole entry, the tested form may be a part): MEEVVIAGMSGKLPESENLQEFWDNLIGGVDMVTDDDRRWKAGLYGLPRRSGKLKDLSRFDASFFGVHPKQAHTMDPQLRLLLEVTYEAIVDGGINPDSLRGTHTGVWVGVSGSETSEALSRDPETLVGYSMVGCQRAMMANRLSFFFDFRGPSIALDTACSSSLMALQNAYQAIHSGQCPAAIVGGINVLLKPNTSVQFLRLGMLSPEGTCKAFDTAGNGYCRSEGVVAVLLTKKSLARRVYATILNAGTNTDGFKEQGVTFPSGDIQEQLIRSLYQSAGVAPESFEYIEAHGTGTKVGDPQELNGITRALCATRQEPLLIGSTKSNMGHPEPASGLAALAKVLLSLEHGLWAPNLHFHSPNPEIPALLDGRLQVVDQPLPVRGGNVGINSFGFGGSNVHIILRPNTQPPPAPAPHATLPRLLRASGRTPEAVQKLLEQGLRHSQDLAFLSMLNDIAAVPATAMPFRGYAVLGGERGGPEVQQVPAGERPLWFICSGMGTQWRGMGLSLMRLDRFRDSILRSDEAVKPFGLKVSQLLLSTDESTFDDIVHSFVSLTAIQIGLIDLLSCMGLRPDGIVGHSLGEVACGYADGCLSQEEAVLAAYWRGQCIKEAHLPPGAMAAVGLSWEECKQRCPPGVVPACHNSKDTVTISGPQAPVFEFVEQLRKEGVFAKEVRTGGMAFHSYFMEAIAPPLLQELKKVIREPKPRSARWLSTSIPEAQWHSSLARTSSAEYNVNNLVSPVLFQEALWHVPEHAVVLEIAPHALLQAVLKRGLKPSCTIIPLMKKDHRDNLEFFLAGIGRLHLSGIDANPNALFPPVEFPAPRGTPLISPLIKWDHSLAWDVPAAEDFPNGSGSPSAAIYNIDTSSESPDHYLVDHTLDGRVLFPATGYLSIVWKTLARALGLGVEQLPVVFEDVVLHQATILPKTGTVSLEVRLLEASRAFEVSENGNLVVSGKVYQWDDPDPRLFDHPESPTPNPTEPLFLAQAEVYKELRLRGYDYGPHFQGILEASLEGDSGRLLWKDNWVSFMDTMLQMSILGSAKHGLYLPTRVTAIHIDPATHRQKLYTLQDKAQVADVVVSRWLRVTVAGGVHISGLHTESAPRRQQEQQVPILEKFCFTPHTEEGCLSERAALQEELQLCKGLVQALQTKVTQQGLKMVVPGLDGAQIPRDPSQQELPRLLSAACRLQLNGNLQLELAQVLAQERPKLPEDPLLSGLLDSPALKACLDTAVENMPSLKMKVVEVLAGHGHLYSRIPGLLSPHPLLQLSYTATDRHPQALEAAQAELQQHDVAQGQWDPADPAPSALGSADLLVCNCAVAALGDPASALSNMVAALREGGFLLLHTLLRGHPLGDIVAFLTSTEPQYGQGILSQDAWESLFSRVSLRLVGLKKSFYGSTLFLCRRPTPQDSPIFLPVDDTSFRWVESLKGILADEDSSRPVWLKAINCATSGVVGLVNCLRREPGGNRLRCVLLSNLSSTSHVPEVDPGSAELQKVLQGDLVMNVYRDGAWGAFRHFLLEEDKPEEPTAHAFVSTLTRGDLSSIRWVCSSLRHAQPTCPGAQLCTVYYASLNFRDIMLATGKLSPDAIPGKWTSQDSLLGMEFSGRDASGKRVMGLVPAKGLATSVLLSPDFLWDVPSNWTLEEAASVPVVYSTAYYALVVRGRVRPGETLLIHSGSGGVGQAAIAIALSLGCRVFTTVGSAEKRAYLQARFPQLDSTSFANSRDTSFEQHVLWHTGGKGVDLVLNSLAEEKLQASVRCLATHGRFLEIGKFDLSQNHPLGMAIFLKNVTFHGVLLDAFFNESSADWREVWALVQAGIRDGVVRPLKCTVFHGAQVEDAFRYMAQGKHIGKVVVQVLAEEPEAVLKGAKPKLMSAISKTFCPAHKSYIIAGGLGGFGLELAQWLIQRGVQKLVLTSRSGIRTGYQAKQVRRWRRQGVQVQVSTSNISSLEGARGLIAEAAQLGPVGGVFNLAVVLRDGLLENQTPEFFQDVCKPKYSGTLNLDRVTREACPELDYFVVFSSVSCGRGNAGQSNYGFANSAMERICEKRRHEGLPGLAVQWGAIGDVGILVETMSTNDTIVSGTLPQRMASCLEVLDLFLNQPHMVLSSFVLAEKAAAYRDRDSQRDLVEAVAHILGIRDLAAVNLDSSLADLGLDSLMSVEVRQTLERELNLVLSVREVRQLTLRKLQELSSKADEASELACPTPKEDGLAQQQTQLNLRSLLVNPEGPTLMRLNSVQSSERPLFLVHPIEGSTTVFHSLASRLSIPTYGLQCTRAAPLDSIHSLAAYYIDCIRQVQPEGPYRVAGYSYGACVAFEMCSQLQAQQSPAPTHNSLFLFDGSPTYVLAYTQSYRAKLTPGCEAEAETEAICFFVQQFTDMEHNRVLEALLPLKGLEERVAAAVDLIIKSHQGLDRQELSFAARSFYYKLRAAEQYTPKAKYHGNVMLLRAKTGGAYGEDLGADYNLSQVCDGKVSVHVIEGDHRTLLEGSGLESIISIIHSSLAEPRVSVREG
Chain of FASN Keto-reductase Domain (hFASN enzyme, full length) (P49327 whole entry, the tested form may be a part): as above

Human FASN pIC50 [1] | FASN Keto-reductase Domain pIC50 [2] | IC50 ([1]; read-out: Human FASN pIC50 (converted)) [nM] | IC50 ([2]; read-out: FASN Keto-reductase Domain pIC50 (converted)) [nM] | Compound
6.48 | 5.56 |  |  | CC1(C)N=C(c2ccc(-c3n[nH]c4ccccc34)cc2F)N(C[C@@H]2CCN(C(=O)C3CC3)C2)C1=O [Compound 57, (R)-1-((1-(cyclopropanecarbonyl)pyrrolidin-3-yl)methyl)-2-(2-fluoro-4-(1H-indazol-3-yl)phenyl)-4,4-dimethyl-1H-imidazol-5(4H)-one]
7.17 | 6.33 |  |  | CC1(C)N=C(c2ccc(-c3ccc4cnccc4c3)cc2F)N(CC2CN(C(=O)C3CC3)C2)C1=O [Compound 56, 1-((1-(cyclopropanecarbonyl)azetidin-3-yl)methyl)-2-(2-fluoro-4-(isoquinolin-6-yl)phenyl)-4,4-dimethyl-1H-imidazol-5(4H)-one]
7.47 | 7.30 |  |  | Cc1cc(-c2ccc3cc(F)ccc3c2)ccc1C1=NC(C)(C)C(=O)N1CC1CN(C(=O)C2(C)CC2)C1 [Compound 82, 2-(4-(6-fluoronaphthalen-2-yl)-2-methylphenyl)-4,4-dimethyl-1-((1-(1-methylcyclopropanecarbonyl)azetidin-3-yl)methyl)-1H-imidazol-5(4H)-one]
7.55 | 6.55 |  |  | CC1(C)N=C(c2ccc(-c3ccc4cc(F)ccc4c3)cc2F)N(CC2CN(C(=O)C3CC3)C2)C1=O [Compound 54, 1-((1-(cyclopropanecarbonyl)azetidin-3-yl)methyl)-2-(2-fluoro-4-(6-fluoronaphthalen-2-yl)phenyl)-4,4-dimethyl-1H-imidazol-5(4H)-one]
7.02 | 6.62 |  |  | CC1(C)N=C(c2ccc(-c3ccc4cc(F)ccc4c3)cc2)N(CC2CN(C(=O)C3CC3)C2)C1=O [Compound 29, 1-((1-(cyclopropanecarbonyl)azetidin-3-yl)methyl)-2-(4-(6-fluoronaphthalen-2-yl)phenyl)-4,4-dimethyl-1H-imidazol-5(4H)-one]
7.34 | 7.20 |  |  | CC1(C)N=C(c2ccc(-c3ccc4cccnc4c3)cc2F)N(C[C@@H]2CCN(C(=O)C3CC3)C2)C1=O [Compound 49, (R)-1-((1-(cyclopropanecarbonyl)pyrrolidin-3-yl)methyl)-2-(2-fluoro-4-(quinolin-7-yl)phenyl)-4,4-dimethyl-1H-imidazol-5(4H)-one]
6.64 | 6.14 |  |  | CC1(C)N=C(c2ccc(-c3c[nH]c4ccccc34)cc2)N(C[C@@H]2CCN(C(=O)C3CC3)C2)C1=O [Compound 65, (R)-2-(4-(1H-indol-3-yl)phenyl)-1-((1-(cyclopropanecarbonyl)pyrrolidin-3-yl)methyl)-4,4-dimethyl-1H-imidazol-5(4H)-one]
6.78 | 6.52 |  |  | CC1(C)N=C(c2ccc(-c3cccc4ncccc34)cc2F)N(C[C@@H]2CCN(C(=O)C3CC3)C2)C1=O [Compound 47, (R)-1-((1-(cyclopropanecarbonyl)pyrrolidin-3-yl)methyl)-2-(2-fluoro-4-(quinolin-5-yl)phenyl)-4,4-dimethyl-1H-imidazol-5(4H)-one]
 |  | 72.4 | 129 | CC1(c2ccccc2)N=C(c2ccc(-c3ccc4[nH]ccc4c3)cc2)N(C[C@@H]2CCN(C(=O)C3CC3)C2)C1=O (mixture of isomers) [Compound 7, (4RS)-2-(4-(1H-Indol-5-yl)phenyl)-1-(((R)-1-(cyclopropanecarbonyl)pyrrolidin-3-yl)methyl)-4-methyl-4-phenyl-1H-imidazol-5(4H)-one]
7.05 | 6.81 |  |  | CC1(C)N=C(c2ccc(-c3ccc4cccnc4c3)cc2F)N(CC2CN(C(=O)C3CC3)C2)C1=O [Compound 39, 1-((1-(cyclopropanecarbonyl)azetidin-3-yl)methyl)-2-(2-fluoro-4-(quinolin-7-yl)phenyl)-4,4-dimethyl-1H-imidazol-5(4H)-one]
6.72 | 6.41 |  |  | CC1(C)N=C(c2ccc(-c3ccc4cnccc4c3)cc2)N(CC2CN(C(=O)C3CC3)C2)C1=O [Compound 27, 1-((1-(cyclopropanecarbonyl)azetidin-3-yl)methyl)-2-(4-(isoquinolin-6-yl)phenyl)-4,4-dimethyl-1H-imidazol-5(4H)-one]
7.28 | 6.90 |  |  | CC1(C)N=C(c2ccc(-c3ccc(-c4ccncc4)cc3)cc2F)N(C[C@@H]2CCN(C(=O)C3CC3)C2)C1=O [Compound 46, (R)-1-((1-(cyclopropanecarbonyl)pyrrolidin-3-yl)methyl)-2-(3-fluoro-4′-(pyridin-4-yl)-[1,1′-biphenyl]-4-yl)-4,4-dimethyl-1H-imidazol-5(4H)-one]
7.12 | 7.06 |  |  | Cc1cc(-c2ccc(-c3cnn(C)c3)cc2)ccc1C1=NC(C)(C)C(=O)N1CC1CN(C(=O)C2(C)CC2)C1 [Compound 87, 4,4-dimethyl-2-(3-methyl-4′-(1-methyl-1H-pyrazol-4-yl)-[1,1′-biphenyl]-4-yl)-1-((1-(1-methylcyclopropanecarbonyl)azetidin-3-yl)methyl)-1H-imidazol-5(4H)-one]
6.69 | 6.45 |  |  | CC1(C)N=C(c2ccc(-c3ccc4cccnc4c3)cc2)N(CC2CN(C(=O)C3CC3)C2)C1=O [Compound 24, 1-((1-(cyclopropanecarbonyl)azetidin-3-yl)methyl)-4,4-dimethyl-2-(4-(quinolin-7-yl)phenyl)-1H-imidazol-5(4H)-one]
6.28 | 6.10 |  |  | Cn1cc(-c2ccc(-c3ccc(C4=NC(C)(C)C(=O)N4CC4CN(C(=O)C5(O)CC5)C4)c(F)c3)cc2)cn1 [Compound 81, 2-(3-fluoro-4′-(1-methyl-1H-pyrazol-4-yl)-[1,1′-biphenyl]-4-yl)-1-((1-(1-hydroxycyclopropanecarbonyl)azetidin-3-yl)methyl)-4,4-dimethyl-1H-imidazol-5(4H)-one]
6.15 | 6.17 |  |  | CC1(C)N=C(c2ccc(-c3cnc4ccccc4c3)cc2)N(C[C@@H]2CCN(C(=O)C3CC3)C2)C1=O [Compound 25, (R)-1-((1-(cyclopropanecarbonyl)pyrrolidin-3-yl)methyl)-4,4-dimethyl-2-(4-(quinolin-3-yl)phenyl)-1H-imidazol-5(4H)-one]
7.23 | 7.14 |  |  | CC1(C)N=C(c2ccc(-c3ccc4cnccc4c3)cc2)N(C[C@@H]2CCN(C(=O)C3CC3)C2)C1=O [Compound 28, (R)-1-((1-(cyclopropanecarbonyl)pyrrolidin-3-yl)methyl)-2-(4-(isoquinolin-6-yl)phenyl)-4,4-dimethyl-1H-imidazol-5(4H)-one]
7.45 | 7.23 |  |  | CC1(C(=O)N2CC(CN3C(=O)C(C)(C)N=C3c3ccc(-c4ccc5cc(F)ccc5c4)cc3F)C2)CC1 [Compound 72, 2-(2-fluoro-4-(6-fluoronaphthalen-2-yl)phenyl)-4,4-dimethyl-1-((1-(1-methylcyclopropanecarbonyl)azetidin-3-yl)methyl)-1H-imidazol-5(4H)-one]
6.69 | 6.26 |  |  | CC1(C)N=C(c2ccc(-c3c[nH]c4ccccc34)cc2F)N(CC2CN(C(=O)C3CC3)C2)C1=O [Compound 62, 1-((1-(cyclopropanecarbonyl)azetidin-3-yl)methyl)-2-(2-fluoro-4-(1H-indol-3-yl)phenyl)-4,4-dimethyl-1H-imidazol-5(4H)-one]
6.82 | 6.44 |  |  | Cc1cc(-c2ccc3c(cnn3C)c2)ccc1C1=NC(C)(C)C(=O)N1CC1CN(C(=O)C2(C)CC2)C1 [Compound 77, 4,4-dimethyl-2-(2-methyl-4-(1-methyl-1H-indazol-5-yl)phenyl)-1-((1-(1-methylcyclopropanecarbonyl)azetidin-3-yl)methyl)-1H-imidazol-5(4H)-one]
6.20 | 5.41 |  |  | CC1(C)N=C(c2ccc(-c3nc4ccccc4o3)cc2)N(C[C@@H]2CCN(C(=O)C3CC3)C2)C1=O [Compound 11, (R)-2-(4-(benzo[d]oxazol-2-yl)phenyl)-1-((1-(cyclopropanecarbonyl)pyrrolidin-3-yl)methyl)-4,4-dimethyl-1H-imidazol-5(4H)-one]
7.20 | 6.95 |  |  | Cn1cc(-c2ccc(-c3ccc(C4=NC(C)(C)C(=O)N4C[C@@H]4CCN(C(=O)C5CC5)C4)c(F)c3)cc2)cn1 [Compound 45, (R)-1-((1-(cyclopropanecarbonyl)pyrrolidin-3-yl)methyl)-2-(3-fluoro-4-(1-methyl-1H-pyrazol-4-yl)-[1,1′-biphenyl]-4-yl)-4,4-dimethyl-1H-imidazol-5(4H)-one]
